Test results published in publication PMC10976173, “Synthesis of 5-Benzylamino and 5-Alkylamino-Substituted Pyrimido[4,5-c]quinoline Derivatives as CSNK2A Inhibitors with Antiviral Activity” (Pharmaceuticals, 2024).
Values after ≈ are worked out from the molar mass of the structure shown. Read-outs that look alike come from different tables or passages of the source.

Legend:
[1] = system: DiscoverX KinomeSCAN assay panel of >400 human kinases; conditions: cited from earlier work; for Kinases Inhibited: Number of kinases showing 90% inhibition at 1 µM in DiscoverX KINOMEscan, ref [6]
[2] = parameters: method as in PMID 37077385; conditions: Kinetic solubility; ref [6]; cited from earlier work
CSNK2A (CSNK2A2-NLuc) = molecular target: T1, CSNK2A (CSNK2A2-NLuc) (Homo sapiens, UniProt P19784); assay: In-cell CSNK2A target engagement by NanoBRET assay; type: cell-based; conditions: for IC50: In-cell target engagement by NanoBRET assay, HEK293 cells
T1 construct: expressed in transfected cells; host or cells: HEK293
T1 sequence (P19784 whole entry): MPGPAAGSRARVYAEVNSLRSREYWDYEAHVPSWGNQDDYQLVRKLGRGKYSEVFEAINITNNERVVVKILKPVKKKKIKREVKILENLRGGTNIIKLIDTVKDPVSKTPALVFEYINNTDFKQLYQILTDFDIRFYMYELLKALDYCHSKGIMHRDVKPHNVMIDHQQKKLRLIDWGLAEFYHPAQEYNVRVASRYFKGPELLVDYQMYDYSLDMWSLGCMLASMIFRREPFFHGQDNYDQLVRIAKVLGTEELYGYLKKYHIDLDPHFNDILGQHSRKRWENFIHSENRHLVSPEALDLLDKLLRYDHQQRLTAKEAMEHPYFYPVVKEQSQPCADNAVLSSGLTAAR
Protocol: A transfection complex of DNA at 10 µg/mL was created, consisting of 9 µg/mL of carrier DNA (Promega, Madison, WI, USA) and 1 µg/mL of CSNK2A2-NLuc fusion DNA in Opti-MEM without serum (Gibco). FuGENE HD (Promega) was added at 30 µL/mL to form a lipid/DNA complex. The solution was then mixed and incubated at room temperature for 20 min. […] The following day, the media was removed via aspiration and replaced with 85 μL of Opti-MEM without phenol red. A total of 5 μL per well of 20×-NanoBRET Tracer K10 (Promega) at 5 μM in Tracer Dilution Buffer (Promega N291B) was added to all wells, except the “no tracer” control wells. Test compounds (10 mM in DMSO) were diluted 100× in Opti-MEM media to prepare stock solutions and evaluated at eleven concentrations. A total of 10 μL per well of the 10-fold test compound stock solutions (final assay concentration of 0.1% DMSO) was added. […] 96-well plates containing cells with NanoBRET Tracer K10 and test compounds (100 µL total volume per well) were equilibrated (37 °C/5% CO2) for 2 h. The plates were cooled to room temperature for 15 min. […] A total of 50 μL of the 3× substrate/extracellular NL inhibitor were added to each well. The plates were read within 30 min on a GloMax Discover luminometer (Promega) equipped with 450 nm BP filter (donor) and 600 nm LP filter (acceptor) using 0.3 s integration time. Raw milliBRET (mBRET) values were obtained by dividing the acceptor emission values (600 nm) by the donor emission values (450 nm) and multiplying by 1000. […] The data were first normalized and then fit using Sigmoidal, 4PL binding curve in GraphPad Prism version 9.5.1 to determine IC50 values (Figure S1).

[3] = Kinetic solubility in PBS pH 7.4; type: physicochemical; conditions: phosphate-buffered saline, pH 7.4, aqueous buffer, kinetic from dmso stock, PBS pH 7.4, 24 h
Protocol: Kinetic solubility assay was conducted using 10 mM DMSO stocks of compounds in phosphate-buffered saline solution (PBS) at pH 7.4 by Analiza, Inc., Cleveland, OH, USA. […] The calculated values were corrected for the background nitrogen in the media and DMSO.

[4] = system: Mouse Hepatitis Virus (MHV); assay: microbe, parasite or virus in culture; type: cell-based; conditions: Murine coronavirus, read-out: MHV IC50
Protocol: DBT cells were plated in 96-well plates to be 80% confluent at the start of the assay. Test compounds were diluted to 30 µM in DMEM. […] Molnupiravir (10 µM) was included as a positive control. […] After 1 h, MHV-NLuc was added at an MOI of 0.1 in 50 μL DMEM so that the final concentration of the first dilution of compound was 30 μM (T = 0). After 10 h, the media was aspirated, and the cells were washed with PBS and lysed with passive lysis buffer (Promega) for 20 min at room temperature. Relative light units (RLUs) were measured using a luminometer (Promega; GloMax). Triplicate data were analyzed in GraphPad Prism version 9.5.1 to generate IC50 values (Figure S2).

[5] = Inhibition of MHV-NLuc in DBT cells

Row | SMILES | Kinases Inhibited [1] | Aqueous Solubility [2] [µM] | IC50 (CSNK2A (CSNK2A2-NLuc)) [µM] | solubility at 24 h [3] [µM] | IC50 [4, 5] [µM] | melting point [°C] | other results
1 | O=C(O)c1ccc2c(c1)nc(Nc1ccc3ccccc3c1)c1ncncc12 [Analog-11] | 10/403 | 54 |  |  |  |  | 
2 | O=C(O)c1ccc2c(c1)nc(NCC1CCCCC1)c1ncncc12 [Compound 4t, 5-((cyclohexylmethyl)amino)pyrimido[4,5-c]quinoline-8-carboxylic acid] |  |  | 0.14 | 180 (≈ 60.6 µg/mL) | 13 | 281 to 283 | Designation (CSNK2A (CSNK2A2-NLuc); active / inactive analogs with 10-fold differences in IC50): Active
3 | O=C(O)c1ccc2c(c1)nc(NCC1CCCCCC1)c1ncncc12 [Compound 4u, 5-((cycloheptylmethyl)amino)pyrimido[4,5-c]quinoline-8-carboxylic acid] |  |  | 0.2 | 150 (≈ 52.6 µg/mL) | 18 | 280 to 283 | 
4 | O=C(O)c1ccc2c(c1)nc(NCC13CCC(CC1)C3)c1ncncc12 [Compound 4w, 5-((bicyclo[2.2.1]heptan-1-ylmethyl)amino)pyrimido[4,5-c]quinoline-8-carboxylic acid] |  |  | 0.17 | 190 (≈ 66.2 µg/mL) | 17 | 291 to 292 | 
5 | O=C(O)c1ccc2c(c1)nc(NCC13CC4CC(CC(C4)C1)C3)c1ncncc12 [Compound 4x, 5-((((3r,5r,7r)-adamantan-1-yl)methyl)amino)pyrimido[4,5-c]quinoline-8-carboxylic acid] |  |  | 0.14 | ~10 (≈ 3.88 µg/mL) | > 30 | 292 to 296 | 
6 | CCC(=O)Nc1cc(Nc2cc(NC3CC3)n3ncc(C#N)c3n2)ccc1C [SGC-CK2-1] | 3/403 |  |  |  |  |  | inhibition of CSNK2A1, CSNK2A2, and STK17B ([1]; at 1 µM, only these kinases of the panel, ref [3]): 90%
7 | O=C(O)c1ccc2c(c1)nc(NCc1ccccc1)c1ncncc12 [SGC-CK2-2, reference compound] |  | 210 |  |  |  |  | IC50 [4]: 15 µM
8 | O=C(O)c1ccc2c(c1)nc(Nc1cccc(Cl)c1)c1ccncc12 [silmitasertib, 5-(3-chlorophenylamino)benzo[c][2,6]naphthyridine-8-carboxylic acid] | 28/403 | 280 |  |  |  |  | 
